The record followed here is patent US20200216906A1, “METHODS AND COMPOSITIONS RELATING TO THE DIAGNOSIS AND TREATMENT OF CANCER” (PRESIDENT AND FELLOWS OF HARVARD COLLEGE, priority 2015, published 2020).

A word on the EC50: it is the concentration giving half of the maximal effect.

One assay deals with Panc02.13 cells. The assay is described as follows: 3D spheroid growth assay, Panc02.13 (GFP/parental) cells. The note with it: read-out: EC50 in 3D-spheroid assays; 3D-spheroid (Hippo-on).
Assay [1] deals with pancreatic cancer cell lines. Briefly: Kinetic cell growth assay, panel of pancreatic cancer cell lines. The following applies: low density growth conditions (Hippo-Off); read-out: EC50 on pancreatic cancer cell growth. The assay is classed as cell-based, human. As for the experimental part: (§1) The effect of gemcitabine on pancreatic cancer cell growth was studied using a kinetic cell growth assay. Pancreatic cancer cells were plated on 96-well plates (Essen ImageLock, Essen Instruments, MI, US) at varying densities (2-4×10^3 for low density or 15-20×10^3 for high density experiments). Small molecule inhibitors at different doses were added 24 hours after plating and cell confluence was monitored with Incucyte Live-Cell Imaging System and software (Essen Instruments). Confluence was observed every hour for 48-144h or until the control (DMSO only) samples reached 100% confluence.
FIG. 20A illustrates the kinetic cell growth assay to determine the effect of gemcitabine in a panel of pancreatic cancer cell lines. Cells are plated at low crowding conditions (10-25% confluence) and 24 hours later exposed to gemcitabine in a dose-dependent manner. They are imaged every 1-3 hours until control (vehicle) treated cells reach 100% confluence. This assay is not confounded by the fact that the time required for each cell line to reach 100% confluence may be very different (as the cell lines have different doubling times). A dose response effect of gemcitabine on cell growth for 16 pancreatic cancer cell lines is shown in FIGS. 20B, 3, 31A-31C and 28, where the range of previous studies is also shown. […] Similar responses to gemcitabine were found in liver cancer cell lines (Huh7 and FOCUS) and untransformed (HEK293) cell lines (FIGS. 3, 31A-31C).
as §1, with “Kinetic Cell growth assay. The” for “The”, “(2-4X103” for “(2-4×10^3”, “15-20X103” for “15-20×10^3”, “Incucyte™” for “Incucyte”

A further assay concerns CDA. The assay is described as follows: CDA expression after verteporfin treatment. In kind it is cell-based, human. The following applies: verteporfin treatment of Panc02.13 cells, p<0.05. Here is the method:
Cells were serum-starved for 24 h and total cellular RNA was isolated using an RNeasy™ Mini Kit (QIAGEN, Santa Clara, Calif.). mRNA levels for the EMT-related genes were determined using the RT^2 Profiler™ qPCR array (SA Biosciences Corporation, Frederick, Md.). Briefly, 1 μg of total RNA was reverse transcribed into first strand cDNA using an RT^2 First Strand™ Kit (SA Biosciences). The resulting cDNA was subjected to qPCR using human gene-specific primers for 75 different genes, and five housekeeping genes (B2M, HPRT1, RPL13A, GAPDH, and ACTB). The qPCR reaction was performed with an initial denaturation step of 10 min at 95° C., followed by 15 s at 95° C. and 60 s at 60° C. for 40 cycles using an Mx3000P™ QPCR system (Stratagene, La Jolla, Calif.).
The activity of the Hippo pathway not only affected the efflux of gemcitabine but also its major metabolite, dFdU (FIG. 22B).
RNA extraction and quantitative real-time PCR. Cells were serum-starved for 24 h and total cellular RNA was isolated using an RNeasy Mini Kit (QIAGEN, Santa Clara, Calif.). mRNA levels for the EMT-related genes were determined using the RT2 Profiler™ qPCR array (SA Biosciences Corporation, Frederick, Md.). Briefly, 1 μg of total RNA was reverse transcribed into first strand cDNA using an RT2 First Strand Kit (SA Biosciences). […]

For assay [2], the system named is Panc02.13 cells with NF2 depletion. The assay is described as follows: High-density spheroid assay, NF2-depleted Panc02.13 cells. In kind it is cell-based, human. An excerpt: In cells at low cell density, where YAP is localized to the nucleus, presumably YAP dependent transcription is turned on. At high density, YAP is in the cytoplasm, transcription is blocked and resistance to gemcitabine is high. Given these correlations it was asked whether inactivation of Hippo pathway could restore gemcitabine sensitivity in crowded conditions. Expression of a non-phosphorylatable form of YAP (YAPS6A) in Panc02.13 pancreatic cancer cells causes constitutive nuclear localization of exogenous YAP even at high crowding (data not shown).

In the case of verteporfin, the figures for the EC50 (in the assay with Panc02.13 cells; in assay [1]) were above 5 µM and below 500 nM, respectively. Moreover, the “Increase in CDA levels” value in the assay on CDA was 3 fold. In addition, the “Sensitivity after NF2 depletion” value in assay [2] is listed as “restored sensitivity”.
